According to PubChem BioAssay AID256 (DTP/NCI, 2004):
Several values for one entry are separate records, joined by “and”; a condition that tells them apart may be missing. Equal values may be shown once. Toxic doses and inconclusive results are not listed.

Tested on: CD2F1 mice, L1210 leukemia ip, survival T/C
Experiment: NCI In Vivo Anticancer Drug Screen. Data for tumor model L1210 Leukemia (intraperitoneal) in CD2F1 (CDF1) mice
Settings: higher = longer survival
Procedure, shortened: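 Antitumor effect is scored in animals hosting a serially transplanted tumor. Values compare compound-dosed animals against vehicle-only controls as a simple quotient.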

[1] = endpoint: mean survival time, dose: 12.5 mg/kg/injection, schedule: Q01DX009 (ip), vehicle: saline with Tween-80
[2] = endpoint: mean survival time, dose: 25.0 mg/kg/injection, schedule: Q01DX009 (ip), vehicle: saline with Tween-80
[3] = endpoint: mean survival time, dose: 100.0 mg/kg/injection, schedule: Q01DX009 (ip), vehicle: saline with Tween-80
[4] = endpoint: mean survival time, dose: 100.0 mg/kg/injection, schedule: Q04DX003 (ip), vehicle: saline with Tween-80
[5] = endpoint: mean survival time, dose: 200.0 mg/kg/injection, schedule: Q01DX009 (ip), vehicle: saline with Tween-80
[6] = endpoint: mean survival time, dose: 200.0 mg/kg/injection, schedule: Q04DX003 (ip), vehicle: saline with Tween-80
[7] = endpoint: mean survival time, dose: 400.0 mg/kg/injection, schedule: Q04DX003 (ip), vehicle: saline with Tween-80
[8] = endpoint: mean survival time, dose: 50.0 mg/kg/injection, schedule: Q01DX009 (ip), vehicle: saline with Tween-80

`C[C@]12CC[C@H](O)C[C@@H]1CC[C@@H]1[C@@H]2C(=O)C[C@@]2(C)[C@H]1CC[C@]2(O)C(=O)CBr` was tested, and the T/C (endpoint: mean survival time, dose: 100.0 mg/kg/injection, schedule: Q01DX009 (sc), vehicle: steriod suspending solution) was 97 % of control, the T/C (endpoint: mean survival time, dose: 100.0 mg/kg/injection, schedule: Q04DX003 (sc), vehicle: steriod suspending solution) was 97 % of control and the T/C (endpoint: mean survival time, dose: 200.0 mg/kg/injection, schedule: Q01DX009 (sc), vehicle: steriod suspending solution) was 94 % of control. The T/C (endpoint: mean survival time, dose: 200.0 mg/kg/injection, schedule: Q04DX003 (sc), vehicle: steriod suspending solution) was 95 % of control, the T/C (endpoint: mean survival time, dose: 400.0 mg/kg/injection, schedule: Q01DX009 (sc), vehicle: steriod suspending solution) was 90 % of control and the T/C (endpoint: mean survival time, dose: 400.0 mg/kg/injection, schedule: Q04DX003 (sc), vehicle: steriod suspending solution) was 95 % of control.

For `O=C(C=C(C(F)(F)F)C(F)(F)F)c1ccccc1Cl`, the T/C [1] was 103 % of control and the T/C [2] was 102 % of control.

For `CCOc1cccc(Cl)n1`, the T/C [3] was 94 % of control, the T/C [4] was 101 % of control and the T/C [5] was 102 % of control. The T/C [6] was 98 % of control and the T/C [7] was 98 % of control.

In the case of `[Pt+2].[S-]c1ccccc1.[S-]c1ccccc1.c1ccc([PH+](c2ccccc2)c2ccccc2)cc1.c1ccc([PH+](c2ccccc2)c2ccccc2)cc1`, the T/C (endpoint: mean survival time, dose: 3.13 mg/kg/injection, schedule: Q04DX003 (sc), vehicle: distilled water + Tween-80) is reported as 97 % of control, the T/C (endpoint: mean survival time, dose: 6.25 mg/kg/injection, schedule: Q04DX003 (sc), vehicle: distilled water + Tween-80) is reported as 110 % of control and the T/C (endpoint: mean survival time, dose: 12.5 mg/kg/injection, schedule: Q04DX003 (sc), vehicle: distilled water + Tween-80) is reported as 103 % of control. The T/C (endpoint: mean survival time, dose: 25.0 mg/kg/injection, schedule: Q04DX003 (sc), vehicle: distilled water + Tween-80) was 97 % of control, the T/C (endpoint: mean survival time, dose: 50.0 mg/kg/injection, schedule: Q04DX003 (sc), vehicle: distilled water + Tween-80) was 91 % of control and the T/C (endpoint: mean survival time, dose: 100.0 mg/kg/injection, schedule: Q04DX003 (sc), vehicle: distilled water + Tween-80) was 89 % of control.

With `CN(C)c1ccc(C(=O)CCN2CC=C(c3ccccc3)CC2)cc1` the T/C (endpoint: mean survival time, dose: 100.0 mg/kg/injection, schedule: Q04DX002 (ip), vehicle: saline with Tween-80) was 102 % of control.

`O=[N+]([O-])c1ccc(N=C(Cl)c2ccccc2)cc1` was tested, and the T/C [3] was 101 % of control, the T/C [5] was 104 % of control and the T/C (endpoint: mean survival time, dose: 400.0 mg/kg/injection, schedule: Q01DX009 (ip), vehicle: saline with Tween-80) was 104 % of control.

`O=C1C=CC(=O)C1=Cc1ccc(O)cc1` was tested, and the T/C (endpoint: mean survival time, dose: 5.0 mg/kg/injection, schedule: Q04DX002 (ip), vehicle: saline with Tween-80) was 100 % of control and the T/C (endpoint: mean survival time, dose: 10.0 mg/kg/injection, schedule: Q04DX002 (ip), vehicle: saline with Tween-80) was 103 % of control.

`N#[N+]c1c(C(=O)O)[nH]c(=O)[nH]c1=O` was tested, and the T/C [1] was 100 % of control, the T/C (endpoint: mean survival time, dose: 12.5 mg/kg/injection, schedule: Q04DX003 (ip), vehicle: saline with Tween-80) was 101 % of control and the T/C [2] was 91 % of control. For the same molecule, the T/C (endpoint: mean survival time, dose: 25.0 mg/kg/injection, schedule: Q04DX003 (ip), vehicle: saline with Tween-80) was 102 % of control and the T/C [8] was 96 % of control.

`N#CC(CC(=O)c1ccccc1)c1ccccc1` (configuration not stated) was tested, and the T/C [4] was 90 % of control, the T/C [6] was 102 % of control and the T/C [7] was 104 % of control.

`COc1cc([N+](=O)[O-])ccc1C(=O)O` was tested, and the T/C (endpoint: mean survival time, dose: 100.0 mg/kg/injection, schedule: Q01DX001 (ip), vehicle: Klucel (hydroxypropylcellulose) (HPC)) was 95 % of control, the T/C (endpoint: mean survival time, dose: 200.0 mg/kg/injection, schedule: Q01DX001 (ip), vehicle: Klucel (hydroxypropylcellulose) (HPC)) was 100 % of control and the T/C (endpoint: mean survival time, dose: 400.0 mg/kg/injection, schedule: Q01DX001 (ip), vehicle: Klucel (hydroxypropylcellulose) (HPC)) was 103 % of control.

With `N#CC1(c2ccc(Cl)cc2)CCC1` the T/C (endpoint: mean survival time, dose: 100.0 mg/kg/injection, schedule: Q01DX009 (ip), vehicle: saline sonified) was 102 % of control, the T/C [4] was 101 % of control and the T/C (endpoint: mean survival time, dose: 200.0 mg/kg/injection, schedule: Q01DX009 (ip), vehicle: saline sonified) was 92 % of control. The T/C [6] was 101 % of control, the T/C (endpoint: mean survival time, dose: 400.0 mg/kg/injection, schedule: Q01DX009 (ip), vehicle: saline sonified) was 105 % of control and the T/C [7] was 100 % of control.

With `CC1OC(c2cnn(-c3ccccc3)n2)C(O)C1O` (configuration not stated) the T/C (endpoint: median survival time, dose: 12.5 mg/kg/injection, schedule: Q01DX005 (ip), vehicle: water) was 103 % of control, the T/C (endpoint: median survival time, dose: 25.0 mg/kg/injection, schedule: Q01DX005 (ip), vehicle: water) was 102 % of control and the T/C (endpoint: median survival time, dose: 50.0 mg/kg/injection, schedule: Q01DX005 (ip), vehicle: water) was 103 % of control. The T/C (endpoint: median survival time, dose: 100.0 mg/kg/injection, schedule: Q01DX005 (ip), vehicle: water) was 100 % of control and the T/C (endpoint: median survival time, dose: 200.0 mg/kg/injection, schedule: Q01DX005 (ip), vehicle: water) was 103 % of control.

In the case of `CC(=O)Oc1ccc(Cl)cc1`, the T/C [3] is reported as 95 % of control, the T/C [4] is reported as 103 % of control and the T/C [5] is reported as 98 % of control. The T/C [6] was 89 % of control and the T/C [7] was 89 % of control.

With `NC(=O)N/N=C\c1ccco1` the T/C [4] was 102 % of control.

`CN(C)c1ccc(/C=C2/CCCC/C2=N/O)cc1` was tested, and the T/C (endpoint: mean survival time, dose: 100.0 mg/kg/injection, schedule: Q04DX003 (ip), vehicle: Klucel (hydroxypropylcellulose) (HPC)) was 102 % of control, the T/C (endpoint: mean survival time, dose: 200.0 mg/kg/injection, schedule: Q04DX003 (ip), vehicle: Klucel (hydroxypropylcellulose) (HPC)) was 94 % of control and the T/C (endpoint: mean survival time, dose: 400.0 mg/kg/injection, schedule: Q04DX003 (ip), vehicle: Klucel (hydroxypropylcellulose) (HPC)) was 98 % of control.

For `CC(C)C(NC(=O)OC(C)(C)C)C(=O)ON1C(=O)CCC1=O` (configuration not stated), the T/C [4] was 104 % of control and the T/C [6] was 100 % of control.

For `COc1ccc(/C=C(/C)C(=O)c2ccccc2)cc1`, the T/C (endpoint: mean survival time, dose: 100.0 mg/kg/injection, schedule: Q01DX009 (ip), vehicle: Klucel (hydroxypropylcellulose) (HPC)) was 97 % of control, the T/C (endpoint: mean survival time, dose: 200.0 mg/kg/injection, schedule: Q01DX009 (ip), vehicle: Klucel (hydroxypropylcellulose) (HPC)) was 97 % of control and the T/C (endpoint: mean survival time, dose: 400.0 mg/kg/injection, schedule: Q01DX009 (ip), vehicle: Klucel (hydroxypropylcellulose) (HPC)) was 91 % of control.

In the case of `COC(=O)c1cn[nH]c1/N=N/N(C)C`, the T/C (endpoint: mean survival time, dose: 88.0 mg/kg/injection, schedule: Q01DX009 (ip), vehicle: other) is reported as 175 % of control, the T/C (endpoint: mean survival time, dose: 133.0 mg/kg/injection, schedule: Q01DX009 (ip), vehicle: other) is reported as 164 % of control and the T/C (endpoint: mean survival time, dose: 300.0 mg/kg/injection, schedule: Q01DX009 (ip), vehicle: other) is reported as 88 % of control.

In the case of `CC(C)(CCl)C(=O)O`, the T/C [8] is reported as 110 % of control, the T/C [3] is reported as 104 % of control and the T/C [4] is reported as 100 % of control. The T/C [5] was 93 % of control and the T/C [6] was 104 % of control.

With `Cc1c2cc3c(cc2cc2c4cc5c(cc4cc[n+]12)OCO5)OCO3` (tested in a mixture with another compound) the T/C (endpoint: mean survival time, dose: 6.25 mg/kg/injection, schedule: Q04DX003 (ip), vehicle: saline) was 116 % of control and 121 % of control, the T/C (endpoint: mean survival time, dose: 18.75 mg/kg/injection, schedule: Q04DX003 (ip), vehicle: saline) was 95 % of control and the T/C (endpoint: mean survival time, dose: 25.0 mg/kg/injection, schedule: Q04DX003 (ip), vehicle: saline) was 115 % of control and 90 % of control.

In the case of `CCOC(=O)C(=NCc1ccc2c(c1)OCO2)NO`, the T/C [4] is reported as 96 % of control, the T/C [6] is reported as 100 % of control and the T/C [7] is reported as 101 % of control.

In the case of `CCOc1ccc(-c2nc(N)nc(N)n2)cc1`, the T/C (endpoint: mean survival time, dose: 12.5 mg/kg/injection, schedule: Q01DX009 (ip), vehicle: water) is reported as 101 % of control, the T/C (endpoint: mean survival time, dose: 25.0 mg/kg/injection, schedule: Q01DX009 (ip), vehicle: water) is reported as 97 % of control and the T/C (endpoint: mean survival time, dose: 50.0 mg/kg/injection, schedule: Q01DX009 (ip), vehicle: water) is reported as 97 % of control. For the same molecule, the T/C (endpoint: mean survival time, dose: 100.0 mg/kg/injection, schedule: Q01DX009 (ip), vehicle: water) was 97 % of control and the T/C (endpoint: mean survival time, dose: 200.0 mg/kg/injection, schedule: Q01DX009 (ip), vehicle: water) was 97 % of control.

`COc1ccccc1NC(=O)Nc1ccc(C(=O)OCC(C)C)cc1` was tested, and the T/C [3] was 89 % of control, the T/C [4] was 92 % of control and the T/C [5] was 88 % of control. For the same molecule, the T/C [6] was 88 % of control and the T/C [7] was 86 % of control.

For `Cc1ncoc1C(=O)O`, the T/C [4] was 109 % of control and the T/C [6] was 104 % of control.

`CC(=O)NC1=C(N2CC2)C(=O)C(NC(C)=O)=C(N2CC2)C1=O` was tested, and the T/C (endpoint: mean survival time, dose: 0.5 mg/kg/injection, schedule: Q01DX009 (ip), vehicle: saline) was 164 % of control and 181 % of control, the T/C (endpoint: mean survival time, dose: 1.0 mg/kg/injection, schedule: Q01DX007 (ip), vehicle: saline) was 190 % of control and the T/C (endpoint: mean survival time, dose: 1.0 mg/kg/injection, schedule: Q01DX009 (ip), vehicle: saline) was 213 % of control and 230 % of control and 261 % of control. The T/C (endpoint: mean survival time, dose: 1.0 mg/kg/injection, schedule: Q03DX003 (ip), vehicle: saline) was 162 % of control, the T/C (endpoint: mean survival time, dose: 2.0 mg/kg/injection, schedule: Q01DX007 (ip), vehicle: saline) was 105 % of control and the T/C (endpoint: mean survival time, dose: 2.0 mg/kg/injection, schedule: Q01DX009 (ip), vehicle: saline) was 253 % of control and 100 % of control and 101 % of control. For the same molecule, the T/C (endpoint: mean survival time, dose: 2.0 mg/kg/injection, schedule: Q03DX003 (ip), vehicle: saline) was 198 % of control, the T/C (endpoint: mean survival time, dose: 2.0 mg/kg/injection, schedule: Q04DX003 (ip), vehicle: saline) was 191 % of control and the T/C (endpoint: mean survival time, dose: 4.0 mg/kg/injection, schedule: Q03DX003 (ip), vehicle: saline) was 107 % of control. The T/C (endpoint: mean survival time, dose: 4.0 mg/kg/injection, schedule: Q04DX003 (ip), vehicle: saline) was 217 % of control.
